# Experimental data: US20030158094A1, “Combination product of an aryl-substituted propanolamine derivative with at least one other active ingredient and the use of the product” (priority 2001, published 2003)
# Key:
# Assay type in all cases: in vivo
# [1] = test system: Male Syrian hamsters (Mesocricetus auratus); assay: Plasma lipids in cholesterol-fed hamsters, combination of compound C1 with Caromax; details: 30 mg/kg/d C1, feed +0.1% CH
# Description: (§1) Hamsters were used for the biological testing of the combination product of the invention. Male Syrian hamsters (Mesocricetus auratus) from 8 to 10 weeks of age were used for the experiment. The animals received a standard feed (Teklad 8604M) supplemented with 0.1% cholesterol. An additional normal control group received only standard feed. The test substances were administered orally by gavage once a day on 12 consecutive days, and the control group was treated with the vehicle. Feces were collected on days 5 and 6 of the experiment for bile acid analysis. Retroorbital blood was taken from the animals on day 10 of the experiment, and the lipid levels in the plasma were determined. Radioactive tracers were administered orally to the animals on day 11 of the experiment to determine the cholesterol absorption in analogy to the method described by Zilversmith et al. On day 13 of the experiment, the animals were sacrificed, and the animals' livers were removed for cholesterol analysis and preparation of microsomes. The 7α-hydroxylase activity was determined in the liver microsomes ex vivo by a modified method of Hylemon et al. [table] Male Syrian hamsters (Mesocricetus auratus) supplied by Harlan 80-100 g at the start of adaptation Safety parameters (CH; TG; ALAT/ASAT; AP; HDL/LDL) Preliminary value and 2 days before end of the experiment (isoflurane anesthesia) by retroorbital blood sampling
# [2] = test system: Male Syrian hamsters (Mesocricetus auratus); assay: Liver cholesterol (HPLC) in cholesterol-fed hamsters, C1 with Caromax; details: 30 mg/kg/d C1, feed +0.1% CH
# Description: as §1, with “Liver cholesterol (HPLC)=1×500 mg in EtOH/KOH (sample is also used for CH synthesis)” for “Male Syrian hamsters (Mesocricetus auratus) supplied by Harlan 80-100 g at the start of adaptation Safety parameters (CH; TG; ALAT/ASAT; AP; HDL/LDL) Preliminary value and 2 days before end of the experiment (isoflurane anesthesia) by retroorbital blood sampling”
# [3] = test system: Male Syrian hamsters (Mesocricetus auratus); assay: Liver cholesterol synthesis (14C-octanoate i.v.) in cholesterol-fed hamsters, C1 with Caromax; details: 30 mg/kg/d C1, feed +0.1% CH
# Description: Hamsters were used for the biological testing of the combination product of the invention. Male Syrian hamsters (Mesocricetus auratus) from 8 to 10 weeks of age were used for the experiment. The animals received a standard feed (Teklad 8604M) supplemented with 0.1% cholesterol. An additional normal control group received only standard feed. The test substances were administered orally by gavage once a day on 12 consecutive days, and the control group was treated with the vehicle. [table] Cholesterol Synthesis i.v. administration of ^14C-octanoate 10 μCi/100 g of animal 1 hour before the end of the experiment (isoflurane anesthesia) Removal of 2×500 mg of liver in EtOH/KOH
# [4] = test system: Male Syrian hamsters (Mesocricetus auratus); assay: Liver cholesterol (HPLC) in cholesterol-fed hamsters, ezetimibe (K00 04513) plus C1; details: feed +0.1% CH; for Liver Cholesterol %: cholesterol ctr. = 100
# Description: as §1, with “[table]” for “[table] Male Syrian hamsters (Mesocricetus auratus) supplied by Harlan 80-100 g at the start of adaptation Safety parameters (CH; TG; ALAT/ASAT; AP; HDL/LDL) Preliminary value and 2 days before end of the experiment (isoflurane anesthesia) by retroorbital blood sampling”
# [5] = test system: Male Syrian hamsters (Mesocricetus auratus); assay: Cholesterol absorption (3H-sitosterol/14C-cholesterol, feces) in hamsters, ezetimibe (K00 04513) plus C1; details: feed +0.1% CH; for CH absorption % of ctr.: normal ctr. = 100.0
# Description: as §1, with “[table]” for “[table] Male Syrian hamsters (Mesocricetus auratus) supplied by Harlan 80-100 g at the start of adaptation Safety parameters (CH; TG; ALAT/ASAT; AP; HDL/LDL) Preliminary value and 2 days before end of the experiment (isoflurane anesthesia) by retroorbital blood sampling”
# [6] = test system: Male Syrian hamsters (Mesocricetus auratus); assay: Plasma lipids in cholesterol-fed hamsters, ezetimibe (K00 04513) plus C1; details: feed +0.1% CH; for HDL % / Plasma parameter Cholesterol % / Plasma parameter LDL % / Plasma parameter Triglycerides %: cholesterol ctr. = 100
# Description: as §1, with “[table]” for “[table] Male Syrian hamsters (Mesocricetus auratus) supplied by Harlan 80-100 g at the start of adaptation Safety parameters (CH; TG; ALAT/ASAT; AP; HDL/LDL) Preliminary value and 2 days before end of the experiment (isoflurane anesthesia) by retroorbital blood sampling”
# [7] = group 3, 0.1 mg/kg/d K 00 04513
# [8] = group 4, 0.3 mg/kg/d K 00 04513
smiles,measurement,setting,value
O=C(CCCCCCCCCCNC(=O)[C@H](O)[C@@H](O)[C@H](O)[C@H](O)CO)Nc1ccccc1[C@@H](Nc1ccccn1)[C@H](c1ccccn1)[C@H](O)c1ccccc1 [C1],Cholesterol,[1],3.58 mmol/L
same,HDL-cholesterol,[1],2.42 mmol/L
same,LDL-cholesterol,[1],0.88 mmol/L
same,Triglycerides,[1],1.49 mmol/L
same,Cholesterol %,[1]; hyperlip. ctr. = 100,89%
same,HDL-cholesterol %,[1]; hyperlip. ctr. = 100,96%
same,LDL-cholesterol %,[1]; hyperlip. ctr. = 100,75%
same,Triglycerides %,[1]; hyperlip. ctr. = 100,102%
same,Liver Cholesterol,[2],14.72 mg/g
same,Liver Cholesterol %,[2]; hyperlip. ctr. = 100,54%
same,Liver Sterol biosynthesis,[3],73 dpm/g/h
same,Liver Sterol biosynthesis %,[3]; normal ctr. I = 100,18%
same,Liver Cholesterol,"[4]; group 6, 3 mg/kg/d C1",10.99 mg/g
same,Liver Cholesterol %,"[4]; group 6, 3 mg/kg/d C1",100%
same,Liver Cholesterol,"[4]; group 7, 10 mg/kg/d C1",9.50 mg/g
same,Liver Cholesterol %,"[4]; group 7, 10 mg/kg/d C1",86%
same,Liver Cholesterol,"[4]; group 8, 30 mg/kg/d C1",7.18 mg/g
same,Liver Cholesterol %,"[4]; group 8, 30 mg/kg/d C1",65%
same,CH absorption % absorption,"[5]; group 6, 3 mg/kg/d C1",39.6%
same,CH absorption % of ctr.,"[5]; group 6, 3 mg/kg/d C1",±80.9%
same,CH absorption % absorption,"[5]; group 7, 10 mg/kg/d C1",49.1%
same,CH absorption % of ctr.,"[5]; group 7, 10 mg/kg/d C1",±100.1%
same,CH absorption % absorption,"[5]; group 8, 30 mg/kg/d C1",38.3%
same,CH absorption % of ctr.,"[5]; group 8, 30 mg/kg/d C1",±78.2%
same,HDL,"[6]; group 6, 3 mg/kg/d C1",2.20 mmol/L
same,Plasma parameter Cholesterol,"[6]; group 6, 3 mg/kg/d C1",3.92 mmol/L
same,Plasma parameter LDL,"[6]; group 6, 3 mg/kg/d C1",0.98 mmol/L
same,Plasma parameter Triglycerides,"[6]; group 6, 3 mg/kg/d C1",1.84 mmol/L
same,HDL %,"[6]; group 6, 3 mg/kg/d C1",102%
same,Plasma parameter Cholesterol %,"[6]; group 6, 3 mg/kg/d C1",96%
same,Plasma parameter LDL %,"[6]; group 6, 3 mg/kg/d C1",87%
same,Plasma parameter Triglycerides %,"[6]; group 6, 3 mg/kg/d C1",90%
same,HDL,"[6]; group 7, 10 mg/kg/d C1",2.00 mmol/L
same,Plasma parameter Cholesterol,"[6]; group 7, 10 mg/kg/d C1",3.70 mmol/L
same,Plasma parameter LDL,"[6]; group 7, 10 mg/kg/d C1",0.78 mmol/L
same,Plasma parameter Triglycerides,"[6]; group 7, 10 mg/kg/d C1",2.35 mmol/L
same,HDL %,"[6]; group 7, 10 mg/kg/d C1",93%
same,Plasma parameter Cholesterol %,"[6]; group 7, 10 mg/kg/d C1",90%
same,Plasma parameter LDL %,"[6]; group 7, 10 mg/kg/d C1",69%
same,Plasma parameter Triglycerides %,"[6]; group 7, 10 mg/kg/d C1",116%
same,HDL,"[6]; group 8, 30 mg/kg/d C1",2.02 mmol/L
same,Plasma parameter Cholesterol,"[6]; group 8, 30 mg/kg/d C1",3.66 mmol/L
same,Plasma parameter LDL,"[6]; group 8, 30 mg/kg/d C1",0.80 mmol/L
same,Plasma parameter Triglycerides,"[6]; group 8, 30 mg/kg/d C1",2.02 mmol/L
same,HDL %,"[6]; group 8, 30 mg/kg/d C1",94%
same,Plasma parameter Cholesterol %,"[6]; group 8, 30 mg/kg/d C1",89%
same,Plasma parameter LDL %,"[6]; group 8, 30 mg/kg/d C1",71%
same,Plasma parameter Triglycerides %,"[6]; group 8, 30 mg/kg/d C1",99%
"O=C1[C@H](CC[C@H](O)c2ccc(F)cc2)[C@@H](c2ccc(O)cc2)N1c1ccc(F)cc1 [K 00 04513, ezetimibe, reference compound]",Liver Cholesterol,[4]; [7],11.52 mg/g
same,Liver Cholesterol %,[4]; [7],105%
same,Liver Cholesterol,[4]; [8],2.00 mg/g
same,Liver Cholesterol %,[4]; [8],18%
same,Liver Cholesterol,"[4]; group 5, 1 mg/kg/d K 00 04513",1.78 mg/g
same,Liver Cholesterol %,"[4]; group 5, 1 mg/kg/d K 00 04513",16%
same,CH absorption % absorption,[5]; [7],47.4%
same,CH absorption % of ctr.,[5]; [7],±96.8%
same,CH absorption % absorption,[5]; [8],15.6%
same,CH absorption % of ctr.,[5]; [8],±31.8%
same,CH absorption % absorption,"[5]; group 5, 1 mg/kg/d K 00 04513",5.8%
same,CH absorption % of ctr.,"[5]; group 5, 1 mg/kg/d K 00 04513",±11.9%
same,HDL,[6]; [7],1.98 mmol/L
same,Plasma parameter Cholesterol,[6]; [7],3.73 mmol/L
same,Plasma parameter LDL,[6]; [7],1.06 mmol/L
same,Plasma parameter Triglycerides,[6]; [7],1.99 mmol/L
same,HDL %,[6]; [7],92%
same,Plasma parameter Cholesterol %,[6]; [7],91%
same,Plasma parameter LDL %,[6]; [7],94%
same,Plasma parameter Triglycerides %,[6]; [7],98%
same,HDL,[6]; [8],1.92 mmol/L
same,Plasma parameter Cholesterol,[6]; [8],2.99 mmol/L
same,Plasma parameter LDL,[6]; [8],0.40 mmol/L
same,Plasma parameter Triglycerides,[6]; [8],1.87 mmol/L
same,HDL %,[6]; [8],89%
same,Plasma parameter Cholesterol %,[6]; [8],73%
same,Plasma parameter LDL %,[6]; [8],35%
same,Plasma parameter Triglycerides %,[6]; [8],92%
same,HDL,"[6]; group 5, 1 mg/kg/d K 00 04513",1.71 mmol/L
same,Plasma parameter Cholesterol,"[6]; group 5, 1 mg/kg/d K 00 04513",2.53 mmol/L
same,Plasma parameter LDL,"[6]; group 5, 1 mg/kg/d K 00 04513",0.23 mmol/L
same,Plasma parameter Triglycerides,"[6]; group 5, 1 mg/kg/d K 00 04513",1.79 mmol/L
same,HDL %,"[6]; group 5, 1 mg/kg/d K 00 04513",80%
same,Plasma parameter Cholesterol %,"[6]; group 5, 1 mg/kg/d K 00 04513",62%
same,Plasma parameter LDL %,"[6]; group 5, 1 mg/kg/d K 00 04513",20%
same,Plasma parameter Triglycerides %,"[6]; group 5, 1 mg/kg/d K 00 04513",88%
